Reference: article PMC11270571 (ACS Omega, 2024)
“Also recorded” adds a separate entry of the source.

Assays:
human AChE = human AChE (Homo sapiens, UniProt P22303); assay: AChE inhibition, modified Ellman spectrophotometric method; type: biochemical; settings: for inhibition at 100 µM / inhibition at 1000 µM / inhibition at 0.001 µM / inhibition at 0.01 µM / inhibition at 0.1 µM / inhibition at 1 µM / inhibition at 10 µM: read-out: human AChE inhibition %
human BuChE = human BuChE (Homo sapiens, UniProt P06276); assay: biochemical; settings: for inhibition at 100 µM / inhibition at 1000 µM: read-out: human BuChE inhibition%
[1] = In vitro BBB permeability assay; type: in vitro ADME; settings: PAMPA; for type of BBB permeation: class by Pe

human AChE, sequence (P22303 32-614): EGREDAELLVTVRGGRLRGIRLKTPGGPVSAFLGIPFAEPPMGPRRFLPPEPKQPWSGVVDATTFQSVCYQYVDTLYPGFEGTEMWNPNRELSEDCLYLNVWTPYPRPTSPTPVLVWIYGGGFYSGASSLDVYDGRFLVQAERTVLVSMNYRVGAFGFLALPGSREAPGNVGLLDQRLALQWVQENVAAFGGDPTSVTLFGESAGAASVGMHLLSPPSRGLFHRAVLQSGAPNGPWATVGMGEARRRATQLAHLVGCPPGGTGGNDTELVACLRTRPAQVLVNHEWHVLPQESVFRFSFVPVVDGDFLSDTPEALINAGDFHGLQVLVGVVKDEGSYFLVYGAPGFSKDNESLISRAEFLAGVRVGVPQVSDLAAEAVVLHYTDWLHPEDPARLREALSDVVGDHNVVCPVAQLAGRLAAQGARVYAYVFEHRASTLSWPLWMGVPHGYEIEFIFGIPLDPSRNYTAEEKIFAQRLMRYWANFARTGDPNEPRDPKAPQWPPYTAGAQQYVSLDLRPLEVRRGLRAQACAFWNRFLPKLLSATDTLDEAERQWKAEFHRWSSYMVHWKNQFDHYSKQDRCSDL
human BuChE, sequence (P06276 29-602): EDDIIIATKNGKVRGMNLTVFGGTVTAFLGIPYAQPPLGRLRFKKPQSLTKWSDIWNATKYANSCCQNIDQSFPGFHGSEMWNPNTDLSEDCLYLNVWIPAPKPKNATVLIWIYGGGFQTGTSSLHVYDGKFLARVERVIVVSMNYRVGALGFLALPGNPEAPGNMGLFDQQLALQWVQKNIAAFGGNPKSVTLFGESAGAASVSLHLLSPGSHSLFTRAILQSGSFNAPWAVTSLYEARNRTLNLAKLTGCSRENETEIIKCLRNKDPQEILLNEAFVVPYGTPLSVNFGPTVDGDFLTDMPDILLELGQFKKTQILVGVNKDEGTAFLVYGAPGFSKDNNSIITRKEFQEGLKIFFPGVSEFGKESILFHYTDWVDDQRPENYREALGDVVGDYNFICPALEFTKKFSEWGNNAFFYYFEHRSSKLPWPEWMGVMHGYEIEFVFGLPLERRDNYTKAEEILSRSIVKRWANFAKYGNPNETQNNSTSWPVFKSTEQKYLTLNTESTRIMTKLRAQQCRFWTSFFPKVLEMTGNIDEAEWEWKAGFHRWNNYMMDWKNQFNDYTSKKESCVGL

O=C(C=Cc1ccc(N2CCOCC2)cc1)c1ccsc1 [Compound 1, 3-(4-Morpholinophenyl)-1-(thiophen-3-yl)prop-2-en-1-one]
IC50 (human AChE): > 100 µM
inhibition at 100 µM (human AChE): 41.1 ± 1.87%
inhibition at 1000 µM (human AChE): 78.3 ± 2.1%
IC50 (human BuChE): > 1000 µM
inhibition at 100 µM (human BuChE): 21.3 ± 0.84%
inhibition at 1000 µM (human BuChE): 46.6 ± 0.92%

c1ccc(N2N=C(c3ccsc3)CC2c2ccc(N3CCOCC3)cc2)cc1 (centres unmarked) [Compound 2a, 1-Phenyl-3-(thiophen-3-yl)-5-[4-(4-morpholinyl)phenyl]-2-pyrazoline]
IC50 (human AChE): 0.107 ± 0.0048 µM
inhibition at 0.001 µM (human AChE): 14.7 ± 0.66%
inhibition at 0.01 µM (human AChE): 20.3 ± 0.99%
inhibition at 0.1 µM (human AChE): 49.7 ± 1.74%
inhibition at 1 µM (human AChE): 82.5 ± 1.91%
inhibition at 10 µM (human AChE): 84.8 ± 1.8%
inhibition at 100 µM (human AChE): 88.6 ± 2.06%
inhibition at 1000 µM (human AChE): 91.4 ± 2.46%
BBB permeability (in words) [1]: high BBB permeability
type of BBB permeation [1]: CNS+ high BBB permeation (high BBB permeation Pe (10^–6 cm s^–1) > 4.0)
IC50 (human BuChE): > 1000 µM
inhibition at 100 µM (human BuChE): 18.1 ± 0.76%
inhibition at 1000 µM (human BuChE): 31.1 ± 0.84%

CS(=O)(=O)c1ccc(N2N=C(c3ccsc3)CC2c2ccc(N3CCOCC3)cc2)cc1 (centres unmarked) [Compound 2b, 1-(4-Methylsulfonylphenyl)-3-(thiophen-3-yl)-5-[4-(4-morpholinyl)phenyl]-2-pyrazoline]
IC50 (human AChE): > 1000 µM
inhibition at 100 µM (human AChE): 23.1 ± 0.95%
inhibition at 1000 µM (human AChE): 40.6 ± 1.76%
IC50 (human BuChE): > 1000 µM
inhibition at 100 µM (human BuChE): 15.1 ± 0.78%
inhibition at 1000 µM (human BuChE): 26.4 ± 0.75%

Cc1ccc(N2N=C(c3ccsc3)CC2c2ccc(N3CCOCC3)cc2)cc1 (centres unmarked) [Compound 2c, 1-(4-Methylphenyl)-3-(thiophen-3-yl)-5-[4-(4-morpholinyl)phenyl]-2-pyrazoline]
IC50 (human AChE): > 100 µM
inhibition at 100 µM (human AChE): 38.7 ± 1.34%
inhibition at 1000 µM (human AChE): 73.6 ± 2.06%
IC50 (human BuChE): > 1000 µM
inhibition at 100 µM (human BuChE): 20.6 ± 0.82%
inhibition at 1000 µM (human BuChE): 29.3 ± 0.99%

COc1ccc(N2N=C(c3ccsc3)CC2c2ccc(N3CCOCC3)cc2)cc1 (centres unmarked) [Compound 2d, 1-(4-Methoxyphenyl)-3-(thiophen-3-yl)-5-[4-(4-morpholinyl)phenyl]-2-pyrazoline]
IC50 (human AChE): > 100 µM
inhibition at 100 µM (human AChE): 44.2 ± 1.24%
inhibition at 1000 µM (human AChE): 84.5 ± 2.36%
IC50 (human BuChE): > 1000 µM
inhibition at 100 µM (human BuChE): 21.1 ± 0.86%
inhibition at 1000 µM (human BuChE): 33.1 ± 0.99%

N#Cc1ccc(N2N=C(c3ccsc3)CC2c2ccc(N3CCOCC3)cc2)cc1 (centres unmarked) [Compound 2e, 1-(4-Cyanophenyl)-3-(thiophen-3-yl)-5-[4-(4-morpholinyl)phenyl]-2-pyrazoline]
IC50 (human AChE): > 100 µM
inhibition at 100 µM (human AChE): 47.6 ± 1.85%
inhibition at 1000 µM (human AChE): 81.2 ± 1.91%
IC50 (human BuChE): > 1000 µM
inhibition at 100 µM (human BuChE): 23.4 ± 1.06%
inhibition at 1000 µM (human BuChE): 38.9 ± 1.22%

Fc1ccc(N2N=C(c3ccsc3)CC2c2ccc(N3CCOCC3)cc2)cc1 (centres unmarked) [Compound 2f, 1-(4-Fluorophenyl)-3-(thiophen-3-yl)-5-[4-(4-morpholinyl)phenyl]-2-pyrazoline]
IC50 (human AChE): > 100 µM
inhibition at 100 µM (human AChE): 45.4 ± 1.99%
inhibition at 1000 µM (human AChE): 71.4 ± 2.46%
IC50 (human BuChE): > 1000 µM
inhibition at 100 µM (human BuChE): 21.9 ± 0.89%
inhibition at 1000 µM (human BuChE): 31.5 ± 1.15%

Clc1ccc(N2N=C(c3ccsc3)CC2c2ccc(N3CCOCC3)cc2)cc1 (centres unmarked) [Compound 2g, 1-(4-Chlorophenyl)-3-(thiophen-3-yl)-5-[4-(4-morpholinyl)phenyl]-2-pyrazoline]
IC50 (human AChE): 0.122 ± 0.0051 µM
inhibition at 0.001 µM (human AChE): 15.6 ± 0.73%
inhibition at 0.01 µM (human AChE): 23.1 ± 1.06%
inhibition at 0.1 µM (human AChE): 47.9 ± 0.96%
inhibition at 1 µM (human AChE): 79.5 ± 1.57%
inhibition at 10 µM (human AChE): 82.4 ± 2.17%
inhibition at 100 µM (human AChE): 86.6 ± 2.56%
inhibition at 1000 µM (human AChE): 90.7 ± 1.15%
type of BBB permeation [1]: CNS ± uncertain BBB permeation
IC50 (human BuChE): > 1000 µM
inhibition at 100 µM (human BuChE): 20.8 ± 0.93%
inhibition at 1000 µM (human BuChE): 25 ± 0.96%

Brc1ccc(N2N=C(c3ccsc3)CC2c2ccc(N3CCOCC3)cc2)cc1 (centres unmarked) [Compound 2h, 1-(4-Bromophenyl)-3-(thiophen-3-yl)-5-[4-(4-morpholinyl)phenyl]-2-pyrazoline]
IC50 (human AChE): > 1000 µM
inhibition at 100 µM (human AChE): 20.9 ± 0.83%
inhibition at 1000 µM (human AChE): 46.5 ± 1.94%
IC50 (human BuChE): > 1000 µM
inhibition at 100 µM (human BuChE): 26.2 ± 1.25%
inhibition at 1000 µM (human BuChE): 40.8 ± 1.94%

Fc1cccc(N2N=C(c3ccsc3)CC2c2ccc(N3CCOCC3)cc2)c1 (centres unmarked) [Compound 2i, 1-(3-Fluorophenyl)-3-(thiophen-3-yl)-5-[4-(4-morpholinyl)phenyl]-2-pyrazoline]
IC50 (human AChE): > 100 µM
inhibition at 100 µM (human AChE): 37.6 ± 1.51%
inhibition at 1000 µM (human AChE): 68.3 ± 2.15%
IC50 (human BuChE): > 1000 µM
inhibition at 100 µM (human BuChE): 27.4 ± 1.38%
inhibition at 1000 µM (human BuChE): 36.2 ± 1.42%

Clc1cccc(N2N=C(c3ccsc3)CC2c2ccc(N3CCOCC3)cc2)c1 (centres unmarked) [Compound 2j, 1-(3-Chlorophenyl)-3-(thiophen-3-yl)-5-[4-(4-morpholinyl)phenyl]-2-pyrazoline]
IC50 (human AChE): 0.062 ± 0.003 µM
inhibition at 0.001 µM (human AChE): 19 ± 0.63%
inhibition at 0.01 µM (human AChE): 36.2 ± 0.98%
inhibition at 0.1 µM (human AChE): 60.8 ± 1.64%
inhibition at 1 µM (human AChE): 72 ± 1.78%
inhibition at 10 µM (human AChE): 80.2 ± 2.16%
inhibition at 100 µM (human AChE): 89.5 ± 1.85%
inhibition at 1000 µM (human AChE): 93.1 ± 2.85%
type of BBB permeation [1]: CNS ± uncertain BBB permeation
IC50 (human BuChE): > 1000 µM
inhibition at 100 µM (human BuChE): 24.9 ± 0.97%
inhibition at 1000 µM (human BuChE): 34.3 ± 1.55%

Brc1cccc(N2N=C(c3ccsc3)CC2c2ccc(N3CCOCC3)cc2)c1 (centres unmarked) [Compound 2k, 1-(3-Bromophenyl)-3-(thiophen-3-yl)-5-[4-(4-morpholinyl)phenyl]-2-pyrazoline]
IC50 (human AChE): > 1000 µM
inhibition at 100 µM (human AChE): 30.3 ± 1.03%
inhibition at 1000 µM (human AChE): 45.8 ± 1.72%
IC50 (human BuChE): > 1000 µM
inhibition at 100 µM (human BuChE): 17.6 ± 0.81%
inhibition at 1000 µM (human BuChE): 29 ± 1.09%

O=[N+]([O-])c1cccc(N2N=C(c3ccsc3)CC2c2ccc(N3CCOCC3)cc2)c1 (centres unmarked) [Compound 2l, 1-(3-Nitrophenyl)-3-(thiophen-3-yl)-5-[4-(4-morpholinyl)phenyl]-2-pyrazoline]
IC50 (human AChE): 0.04 ± 0.0019 µM
inhibition at 0.001 µM (human AChE): 19.3 ± 0.75%
inhibition at 0.01 µM (human AChE): 42.2 ± 1.52%
inhibition at 0.1 µM (human AChE): 64.6 ± 1.85%
inhibition at 1 µM (human AChE): 75.4 ± 1.03%
inhibition at 10 µM (human AChE): 82.6 ± 1.51%
inhibition at 100 µM (human AChE): 91.7 ± 1.92%
inhibition at 1000 µM (human AChE): 95.3 ± 2.03%
BBB permeability (in words) [1]: high blood–brain barrier permeability; also recorded: high BBB permeability
type of BBB permeation [1]: CNS+ high BBB permeation (high BBB permeation Pe (10^–6 cm s^–1) > 4.0)
IC50 (human BuChE): > 1000 µM
inhibition at 100 µM (human BuChE): 19.3 ± 0.82%
inhibition at 1000 µM (human BuChE): 30.5 ± 0.97%
